The text below walks through data of patent US20050034187A1, “Modified tet-inducible system for regulation of gene expression in plants” (priority 2000, published 2005).

Series [1] concerns TripleX/GUS (pAC499) repressed by nTR under control of different promoters. Description: Leaf disk induction experiment, GUS assay (double transformants). The note with it: Doxy 5 mg/l, leaf disks, FIG. 2. The series is classed as cell-based, tobacco. An excerpt:
FIG. 2—Induction of GUS Gene in Leaves Expressing NLS-tet Receptor Under Control of Different Promoters. Tobacco plants. already expressing pAC499 (TripleX/GUS) were transformed with […] pCAMBIA-based Agro cassettes carrying NPTII marker gene and nTR under control of 35S, 2×35S, A. thaliana HPPD, A. thaliana AHAS, A. thaliana Actin and (OCS)3MAS promoters (pACAG076, 077, 078, 079, 109 and 084), as well as pAC489 (35S/WtTR) to yield a number of transgenic lines. This collection of tobacco plants was tested in a preliminary induction experiment performed on leaf disks: 5-10 mm leaf disks were excised from plants and put into six- or twelve-well plates with liquid MS medium and with or without Doxy 5 mg/l at 5 mg/l. GUS assays were performed with the tissues 5 days later. Each bar represents one sample; numbers above the bars represent magnitude of induction.
FIG. 3—Induction of GUS Gene In Tobacco Leaves Expressing nTR Under Control of Different Promoters. […]
Evaluation of tet inducible system in plant tissues. […] These plates were cultivated in dark on shaker at 90 rpm for 5 days (three weeks for analysis of induction of herbicide resistance) and then used in assays or evaluated visually. […] Three weeks later the induction of regeneration from these disks was evaluated.

A further series deals with tobacco line pACAG029#4. As to conditions: in vivo. From the text: FIG. 36—tet-Inducible Herbicide Resistance: Spray Test of F1 Seedlings and Seeds of Tobacco Line pACAG029#4. Seedlings at different stages of development (1 and 2 weeks old), produced by germination in 2.5″×2.5″ pots with Metro mix, were used for assessing tet inducible herbicide resistance in a post-emergence test. For pre-emergency application, seeds were sown on the Metro mix right before PURSUIT®, application. 15-20 seeds were placed in each pot. Pots were sprayed with doxycycline premixed with PURSUIT®, each at different rates. The test was evaluated two weeks after the spray. Each pot in the figure represents a unique experiment in terms of the combination of chemical rates and the stage of seedling development. As shown in the figure, the rate of herbicide resistance directly corresponded with increased doxycycline application rates.
Induction of herbicide resistance in plants growing in soil has been investigated. Transgenic F1 heterozygous tobacco seeds of the line pACAG029#4 (this line has been shown elsewhere herein to provide the best repression/induction in tissue culture tests) ere used for the spray test. Seedlings at different stages of development (1 and 2 weeks old) produced by germination of seeds in 2.5″×2.5″ pots with Metro mix were used for post-emergence test. For pre-emergency application, seeds were sown on the Metro mix right before the application of herbicide. […]

On to `C[C@H]1c2cccc(O)c2C(=O)C2=C(O)[C@]3(O)C(=O)C(C(N)=O)=C(O)[C@@H](N(C)C)[C@@H]3[C@@H](O)[C@@H]21` [doxycycline], for which the “magnitude of induction of GUS” value in series [1] (nTR driven by 35S promoter, 5 days) fell in the range of 26 to 76 fold. Further, in series [1] (nTR driven by HPPD and AHAS promoters), the “maximum induction of GUS” value is recorded as 1.4 fold. Further, the “plant injury in spray test” value with tobacco line pACAG029#4 was “caused some injury and stunted growth of plants”.
